The target of one data set is JAK2 (Homo sapiens (Human), UniProt O60674). The experiment in a line: JAK2 kinase inhibitory activity determination (HTRF Kinase-TK). In kind it is biochemical. As to conditions: JAK2 0.008 ng/μL, ATP 4 μM, substrate 1 μM, 2 h.
A further data set has as its target JAK1 (Homo sapiens (Human), UniProt P23458). The experiment in a line: JAK1 kinase inhibitory activity determination (HTRF Kinase-TK). The class given is biochemical. The conditions noted are these: JAK1 0.32 ng/μL, ATP 4 μM, substrate 1 μM, 4 h. On the technique in general: Time-resolved FRET reads energy transfer from a long-lived donor to a nearby acceptor.
The next data set concerns the target JAK3 (Homo sapiens (Human), UniProt P52333). The experiment in a line: JAK3 kinase inhibitory activity determination (HTRF Kinase-TK). The class given is biochemical. The conditions noted are these: JAK3 0.1 ng/μL, ATP 3 μM, substrate 1 μM, 3 h.
Data set [1] can be described thus: Oral pharmacokinetic determination in mice. In kind it is in vivo, C57 mice. The conditions noted are these: for AUC(0-inf) / AUC(0-t) / Cmax / Tmax / MRT last / MRT inf / half-life: mouse, male C57 mice, plasma; for MRT last: read-out: MRT(0-t); for MRT inf: read-out: MRT(0-∞); for half-life: read-out: T½ (converted). As for the experimental part:
Three healthy male C57 mice, aged 6-8 weeks, were purchased from Shanghai Sippr-BK Laboratory Animal Co. Ltd. (Shanghai, China).
Mice were fasted overnight prior to oral administration, and food supply was resumed 4 h after administration with free access to water. […] blood sampling; approximately 30 μL of blood was collected from the tested animals at 0.125 h, 0.25 h, 0.5 h, 1 h, 2 h, 4 h, 8 h, and 24 h, respectively, after administration and placed in test tubes containing the anticoagulant sodium heparin, which were placed on ice until centrifugation, and within 15 min, centrifuged in a centrifuge at 6800 g for 6 min at 6-8° C., and within 1 h of blood collection/centrifugation, plasma was transferred to appropriately labeled tubes and stored frozen at about −80° C.
Mass spectrometry method: LC-MS/MS-19 (TQ5500) (SCIEX, USA), ion source: ESI source, detection mode: positive ion detection, scanning mode: multi-reaction monitoring (MRM) mode, m/z: 271.10/172.00 Da (Tolbutamide, internal standard).
To 10 μL of the plasma sample, was added 200 μL of internal standard working solution (Tolbutamide, 100 ng/mL), with vortex for 1 min, followed by centrifugation for 10 min at 18,000 g. 200 μL of a supernatant was transferred to a 96-well low volume plate, and 1 μL of the supernatant was taken and injected into LC-MS/MS for analysis.
Pharmacokinetic (PK) parameters were calculated using Phoenix WinNonlin 7.0 software, and oral pharmacokinetic parameters of mice including AUC, Cmax, Tmax, T½, etc., were estimated by the non-compartment model.

Like-named read-outs stand apart in the source and are kept apart here.

Sequence of JAK1 (P23458 866-1154): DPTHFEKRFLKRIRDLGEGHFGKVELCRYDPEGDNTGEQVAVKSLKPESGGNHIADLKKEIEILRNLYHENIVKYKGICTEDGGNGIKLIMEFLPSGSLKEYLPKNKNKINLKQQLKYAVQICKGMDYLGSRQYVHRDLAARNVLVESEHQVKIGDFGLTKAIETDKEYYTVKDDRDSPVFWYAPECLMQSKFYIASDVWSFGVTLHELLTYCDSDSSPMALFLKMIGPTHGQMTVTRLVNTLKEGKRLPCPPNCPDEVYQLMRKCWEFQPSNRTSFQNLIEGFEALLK
Sequence of JAK2 (O60674 826-1132): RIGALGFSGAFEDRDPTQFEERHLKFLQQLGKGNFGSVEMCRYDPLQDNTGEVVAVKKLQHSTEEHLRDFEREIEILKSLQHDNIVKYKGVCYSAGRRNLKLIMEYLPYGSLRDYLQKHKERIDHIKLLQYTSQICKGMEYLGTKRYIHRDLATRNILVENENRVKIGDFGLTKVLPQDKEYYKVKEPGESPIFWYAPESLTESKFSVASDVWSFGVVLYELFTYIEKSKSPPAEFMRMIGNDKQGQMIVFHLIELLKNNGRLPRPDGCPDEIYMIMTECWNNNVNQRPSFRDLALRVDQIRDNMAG
Sequence of JAK3 (P52333 795-1124): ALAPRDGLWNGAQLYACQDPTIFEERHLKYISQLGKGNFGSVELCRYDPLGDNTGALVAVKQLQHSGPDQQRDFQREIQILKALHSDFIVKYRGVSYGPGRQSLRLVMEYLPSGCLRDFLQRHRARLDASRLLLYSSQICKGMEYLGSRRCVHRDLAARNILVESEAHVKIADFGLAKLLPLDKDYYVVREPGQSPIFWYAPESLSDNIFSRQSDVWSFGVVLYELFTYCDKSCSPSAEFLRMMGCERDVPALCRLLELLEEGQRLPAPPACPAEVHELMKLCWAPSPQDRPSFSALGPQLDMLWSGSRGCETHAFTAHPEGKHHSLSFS
Method for JAK1: (§1) • JAK1: 0.32 ng/μL, ATP 4 M, substrate 1 μM, time 4 h • JAK2: 0.008 ng/μL, ATP 4 μM, substrate 1 M, time 2 h • JAK3: 0.1 ng/μL, ATP 3 μM, substrate 1 μM, time 3 h
(§2) The half-maximal inhibitory concentration (IC50) was fitted using GraphPad Prism 6 based on the kinase inhibition rates of the compound to be tested at different concentrations.
Method for JAK2: as §1, §2
Method for JAK3: as §1
At the end of incubation, HTRF665/620 signals were read on a multifunctional microplate reader.
as §2

For orientation: IC50 means the concentration that inhibits the measured activity by half. For `N#CCC(C1CCCC1)n1cc(-c2cccc3nc(NC(=O)C4CC4)cn23)cn1` (centres unmarked) [Compound 1], the half-inhibitory concentration (IC50) is 0.00413 µM against JAK2 and 0.0576 µM on JAK1.

On to `N#CCC(C1CC1)n1cc(-c2cccc3nc(NC(=O)C4CC4)cn23)cn1` (centres unmarked) [Compound 2], for which the IC50 at JAK2 worked out at 0.0135 µM; against JAK1 it was 0.077 µM.

As to `N#CCC(CC1CC1)n1cc(-c2cccc3nc(NC(=O)C4CC4)cn23)cn1` (centres unmarked) [Compound 3], the IC50 against JAK2 came to 0.00687 µM; against JAK1 it was 0.0378 µM.

Regarding `CCC(CC#N)n1cc(-c2cccc3nc(NC(=O)C4CC4)cn23)cn1` (centres unmarked) [Compound 4], the IC50 against JAK2 is 0.00468 µM; on JAK1, 0.0195 µM.

`CCCC(CC#N)n1cc(-c2cccc3nc(NC(=O)C4CC4)cn23)cn1` (centres unmarked) [Compound 5]: the IC50 is 0.00181 µM against JAK2 and 0.014 µM against JAK1.

With `COCC(CC#N)n1cc(-c2cccc3nc(NC(=O)C4CC4)cn23)cn1` (centres unmarked) [Compound 6], the IC50 on JAK2 amounted to 0.00949 µM; on JAK1, 0.0489 µM.

Consider `CCCCC(CC#N)n1cc(-c2cccc3nc(NC(=O)C4CC4)cn23)cn1` (centres unmarked) [Compound 7], for which the IC50 against JAK2 stood at 0.00172 µM; at JAK1 it was 0.00762 µM.

Consider `COCCC(CC#N)n1cc(-c2cccc3nc(NC(=O)C4CC4)cn23)cn1` (centres unmarked) [Compound 9], for which the results for the IC50 against JAK2 and at JAK1 were 0.0134 µM and 0.0283 µM, respectively.

Regarding `N#CCC(CCC(F)(F)F)n1cc(-c2cccc3nc(NC(=O)C4CC4)cn23)cn1` (centres unmarked) [Compound 10], the IC50 worked out at 0.00124 µM against JAK2 and 0.00664 µM on JAK1.

`N#CCC(C1CCCC1)n1cc(-c2cccc3nc(NC(=O)C4CC4)nn23)cn1` (centres unmarked) [Compound 11]: the IC50 against JAK2 is 0.00628 µM; at JAK1, 0.0366 µM.

Consider `N#CCC1(n2cc(-c3cccc4nc(NC(=O)C5CC5)cn34)cn2)CCC(F)(F)CC1` [Compound 12], for which the IC50 at JAK2 is 0.0007 µM; on JAK1, 0.01 µM.

Regarding `N#CCC1(n2cc(-c3cccc4nc(NC(=O)C5CC5)cn34)cn2)CCC(C(F)(F)F)CC1` (centres unmarked) [Compound 13], the IC50 at JAK3 turned out to be 0.0468 µM; on JAK2 it was 0.0008 µM; on JAK1, 0.0084 µM.

For `N#CCC1(n2cc(-c3cccc4nc(NC(=O)C5CC5)cn34)cn2)CCCCC1` [Compound 14], the IC50 against JAK2 came out at 0.0067 µM; against JAK1 it was 0.115 µM.

Broadly, the AUC(0-inf) is total exposure, with the tail of the curve extrapolated. A high value points to high exposure. A word on the AUC(0-t): it is exposure summed from dosing to a finite time, without extrapolation to infinity. Low readings indicate low exposure, high ones high exposure. In general, Cmax refers to the peak of the concentration-time curve. A word on the Tmax: it is the time from dosing to the highest level. On to `CS(=O)(=O)C1CN(Cc2ccc(-c3cccc4nc(NC(=O)C5CC5)cn34)cc2)C1` [Compound 15], for which the “systemic exposure (AUC) per unit dose compared to Filgotinib” value in data set [1] (mice, oral, unit dose comparison) is “higher systemic exposure”. Also, in data set [1] (oral (gavage), dose 10 mg/kg), the AUC(0-inf) was 9.88 µg·h/mL, the AUC(0-t) amounted to 9.75 µg·h/mL, the peak level (Cmax) was 6.22 µg/mL and the Tmax amounted to 0.29 h. Moreover, in data set [1] (oral (gavage), dose 10 mg/kg), the MRT last was determined as 1.6 h, the MRT inf amounted to 1.7 h and the half-life is 1.31 h.

As to `O=C(Nc1nc2cccc(-c3ccc(OC4CCS(=O)(=O)CC4)cc3)n2n1)C1CC1` [Compound 19], the IC50 against JAK3 was determined as 0.909 µM; against JAK2, 0.0903 µM; against JAK1 it was 0.182 µM.

In the case of `O=C(Nc1cn2c(-c3ccc(ON4CC[S+]([O-])CC4)cc3)cccc2n1)C1CC1` [Compound 21], the IC50 against JAK2 is 0.592 µM; against JAK1, 0.247 µM.

For the molecule `O=C(Nc1nc2cccc(-c3ccc(CN4CCS(=O)(=O)CC4)cc3)n2n1)C1(F)CC1` [Compound 24], the IC50 on JAK3 was more than 10 µM; against JAK2 it was 1.58 µM; at JAK1, 3.64 µM.

In the case of `O=C(Nc1nc2cccc(-c3ccc(CN4CCS(=O)(=O)CC4)cc3)n2n1)C1CC1(F)F` (centres unmarked) [Compound 25], the IC50 at JAK3 stood at 7.78 µM; against JAK2, 1.98 µM; on JAK1, 0.59 µM.

Turning to `O=C(Nc1nc2cccc(-c3ccc(CN4CCS(=O)(=O)CC4)cc3)n2n1)C1C[C@H]1F` (some centres unmarked) [Compound 26], the IC50 on JAK3 was 3.45 µM; against JAK2 it was 1.09 µM; on JAK1, 1.25 µM.

Consider `O=C(Nc1nc2cccc(-c3ccc(CN4CCS(=O)(=O)CC4)cc3)n2n1)C1C[C@@H]1F` (some centres unmarked) [Compound 27], for which the values for the IC50 on JAK3, on JAK2 and against JAK1 were 1.92 µM, 0.415 µM and 1.08 µM, respectively.

As to `O=C(Nc1cn2c(-c3ccc(CN4CCC(F)(F)CC4)cc3)cccc2n1)C1CC1` [Compound 28], the IC50 came out at 0.0949 µM on JAK3, 0.0242 µM on JAK2 and 0.0262 µM against JAK1.

Consider `O=C(Nc1cn2c(-c3ccc(CN4CCS(=O)(=O)CC4)cc3F)cccc2n1)C1CC1F` (centres unmarked) [Compound 29], for which the results for the IC50 against JAK3, against JAK2 and against JAK1 were 6.11 µM, 0.17 µM and 0.0887 µM, respectively.

For the molecule `CCS(=O)(=O)C1CCN(Cc2ccc(-c3cccc4nc(NC(=O)C5CC5)cn34)cc2)CC1` [Compound 30], the IC50 against JAK3 is 5.59 µM; on JAK2, 0.162 µM; against JAK1, 0.387 µM.

In the case of `CC(C)S(=O)(=O)C1CCN(Cc2ccc(-c3cccc4nc(NC(=O)C5CC5)cn34)cc2)CC1` [Compound 32], the results for the IC50 against JAK3, on JAK2 and at JAK1 were 9.64 µM, 0.448 µM and 0.956 µM, respectively.

As to `CC(C)CS(=O)(=O)C1CCN(Cc2ccc(-c3cccc4nc(NC(=O)C5CC5)cn34)cc2)CC1` [Compound 33], the IC50 at JAK3 was 8.28 µM; at JAK2, 0.463 µM; on JAK1 it was 0.675 µM.

For `O=C(Nc1nc2cccc(-c3ccc(CN4CCS(=O)(=O)CC4)cc3)n2n1)C1CC1` [Filgotinib, reference compound], in data set [1] (oral, dose 5 mg/kg), the AUC(0-inf) was determined as 2.19 µg·h/mL, the AUC(0-t) is 2.12 µg·h/mL, the maximum concentration (Cmax) stood at 1.71 µg/mL and the Tmax came out at 0.25 h. Besides, in data set [1] (oral, dose 5 mg/kg), the MRT last was determined as 1.54 h, the MRT inf was determined as 1.82 h and the half-life is 1.79 h.
